Laboratory results published in the NIST ThermoML archive (doi:10.1016/j.jct.2011.12.013).

Assay: xn = mol fraction of the nth substance listed
Settings: Liquid, Custom Made Vibrating Tube Densimeter

C=C1CC[C@H]2C[C@@H]1C2(C)C [(1S,5S)-6,6-dimethyl-2-methylenebicyclo[3.1.1]heptane] + C=C(C)[C@H]1CC=C(C)CC1
mass density [kg/m3]
Settings	x2 = 0	x2 = 0.11	x2 = 0.2008	x2 = 0.289	x2 = 0.3961	x2 = 0.4938	x2 = 0.5906	x2 = 0.6984	x2 = 0.7993	x2 = 0.9022
283.15 K, 20000 kPa	891.3	888.1	885.4	882.8	879.6	876.8	873.9	870.9	868	864.5
283.15 K, 25000 kPa	894.2	891	888.3	885.7	882.4	879.6	876.8	873.7	870.8	867.8
283.15 K, 30000 kPa	897	893.9	891	888.4	885.2	882.5	879.7	876.5	873.6	870.4
283.15 K, 35000 kPa	899.9	896.7	893.8	891.2	887.9	885.2	882.4	879.3	876.5	873.3
283.15 K, 40000 kPa	902.6	899.3	896.3	894	890.6	887.8	885.1	881.9	879.2	876
298.15 K, 20000 kPa	880.2	877	874.1	871.8	868.7	865.8	863	859.9	857.2	854.3
298.15 K, 25000 kPa	883.3	880.1	877.2	874.9	871.8	868.9	866.2	863.1	860.2	857.3
298.15 K, 30000 kPa	886.3	883.1	880.3	877.9	874.8	871.9	869.2	866.2	863.3	860.3
298.15 K, 35000 kPa	889.3	886.1	883.5	881	877.7	874.9	872.3	869	866.5	863.4
298.15 K, 40000 kPa	892.2	889	886.5	883.9	880.7	878	875.4	871.9	869	866.1
313.15 K, 20000 kPa	869.3	866.1	863.5	860.9	857.8	854.9	852.4	849.3	846.5	843.7
313.15 K, 25000 kPa	872.6	869.5	866.8	864.2	861.1	858.1	855.6	852.5	849.8	847
313.15 K, 30000 kPa	875.7	872.6	870.1	867.5	864.3	861.4	858.7	855.7	852.9	849.9
313.15 K, 35000 kPa	878.8	875.7	873.3	870.6	867.5	864.5	862	858.7	856.1	853
313.15 K, 40000 kPa	882	878.8	876.7	873.8	870.7	867.8	865	861.8	859.1	856
328.15 K, 20000 kPa	858.2	855.3	852.6	850.1	846.9	844.3	841.5	838.9	835.9	833.1
328.15 K, 25000 kPa	861.7	858.7	856	853.5	850.4	847.7	844.9	842.1	839.4	836.4
328.15 K, 30000 kPa	865.2	862.1	859.5	857	853.9	851.2	848.5	845.4	842.7	839.7
328.15 K, 35000 kPa	868.7	865.5	862.7	860.3	857.2	854.6	851.9	848.7	846.1	843.1
328.15 K, 40000 kPa	872.2	868.8	866.1	863.7	860.7	857.8	855.3	852	849.4	846.8
343.15 K, 20000 kPa	847.7	844.7	842.1	839.6	836.7	834	831.4	828.4	825.7	822.7
343.15 K, 25000 kPa	851.4	848.4	845.8	843.5	840.3	837.6	834.9	832	829.1	826.3
343.15 K, 30000 kPa	855	852	849.4	846.9	843.9	841.2	838.6	835.6	832.9	830
343.15 K, 35000 kPa	858.6	855.5	853.1	850.6	847.4	844.8	842.3	839.1	836.7	833.6
343.15 K, 40000 kPa	862.1	859	856.7	854	850.8	848.3	845.6	842.4	840.1	837.1
358.15 K, 20000 kPa	837	834	831.4	829.2	826.3	823.7	821	818.2	815.6	812.5
358.15 K, 25000 kPa	840.9	838	835.4	833	830.1	827.4	824.9	822	819.4	816.7
358.15 K, 30000 kPa	844.8	841.9	839.2	836.8	833.8	831.2	828.6	825.7	823	820
358.15 K, 35000 kPa	848.7	845.7	843	840.6	837.5	834.9	832.4	829.4	826.8	823.9
358.15 K, 40000 kPa	852.6	849.6	846.8	844.6	841.4	838.7	836.2	833.1	830.3	827.3
